Laboratory results reported in PubChem BioAssay (NCI).
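These data come from cells grown in 96-well plates and exposed to compound for 48 hours at five concentrations. TGI is the concentration that stops growth completely.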

How the values were obtained:
Test in all cases: DTP human tumour cell line panel, 48 h
K-562 leukemia = test system: K-562 leukemia
IGROV1 ovarian = test system: IGROV1 ovarian
OVCAR-5 ovarian = test system: OVCAR-5 ovarian
SF-295 CNS = test system: SF-295 CNS
OVCAR-4 ovarian = test system: OVCAR-4 ovarian
RXF 393 renal = test system: RXF 393 renal
MDA-MB-435 = test system: MDA-MB-435
HL-60(TB) leukemia = test system: HL-60(TB) leukemia
UO-31 renal = test system: UO-31 renal
EKVX NSCLC = test system: EKVX NSCLC
SN12C renal = test system: SN12C renal
DU-145 prostate = test system: DU-145 prostate
RPMI-8226 leukemia = test system: RPMI-8226 leukemia
HCT-15 colon = test system: HCT-15 colon
TK-10 renal = test system: TK-10 renal
BT-549 breast = test system: BT-549 breast
NCI-H522 lung = test system: NCI-H522 lung
NCI/ADR-RES ovarian = test system: NCI/ADR-RES ovarian
786-0 renal = test system: 786-0 renal
CAKI-1 renal = test system: CAKI-1 renal
UACC-257 melanoma = test system: UACC-257 melanoma
MCF7 breast = test system: MCF7 breast
SK-MEL-5 melanoma = test system: SK-MEL-5 melanoma
HCT-116 colon = test system: HCT-116 colon
OVCAR-8 ovarian = test system: OVCAR-8 ovarian
NCI-H460 lung = test system: NCI-H460 lung
MOLT-4 leukemia = test system: MOLT-4 leukemia
PC-3 prostate = test system: PC-3 prostate
HT29 colon = test system: HT29 colon
HOP-92 NSCLC = test system: HOP-92 NSCLC
NCI-H226 lung = test system: NCI-H226 lung
U251 CNS = test system: U251 CNS
HOP-62 NSCLC = test system: HOP-62 NSCLC
SW-620 colon = test system: SW-620 colon
CCRF-CEM leukemia = test system: CCRF-CEM leukemia
SF-268 CNS = test system: SF-268 CNS
NCI-H23 lung = test system: NCI-H23 lung
MALME-3M melanoma = test system: MALME-3M melanoma
KM12 colon = test system: KM12 colon
MDA-MB-231 breast = test system: MDA-MB-231 breast
SR leukemia = test system: SR leukemia
MDA-N = test system: MDA-N
A549 NSCLC = test system: A549 NSCLC
ACHN renal = test system: ACHN renal
COLO 205 colon = test system: COLO 205 colon
LOX IMVI melanoma = test system: LOX IMVI melanoma
HS 578T breast = test system: HS 578T breast
SNB-19 CNS = test system: SNB-19 CNS
OVCAR-3 ovarian = test system: OVCAR-3 ovarian
SK-MEL-28 melanoma = test system: SK-MEL-28 melanoma
HCC-2998 colon = test system: HCC-2998 colon
A498 renal = test system: A498 renal
SF-539 CNS = test system: SF-539 CNS
SK-MEL-2 melanoma = test system: SK-MEL-2 melanoma
M14 melanoma = test system: M14 melanoma
SK-OV-3 ovarian = test system: SK-OV-3 ovarian
SNB-75 CNS = test system: SNB-75 CNS
T-47D breast = test system: T-47D breast

**Q.** For `CC(NC(=O)C(N)Cc1ccc(O)cn1)C(=O)O` (centres undefined), which TGI (K-562 leukemia) is on record?
**A.** > 100 µM

**Q.** What about the TGI (IGROV1 ovarian) of the same compound?
**A.** > 100 µM

**Q.** And the TGI (OVCAR-5 ovarian)?
**A.** > 100 µM

**Q.** And the TGI (SF-295 CNS)?
**A.** > 100 µM

**Q.** And the TGI (OVCAR-4 ovarian)?
**A.** > 100 µM

**Q.** What about the TGI (RXF 393 renal) of the same compound?
**A.** > 100 µM

**Q.** What about the TGI (MDA-MB-435) of the same compound?
**A.** > 100 µM

**Q.** What about the TGI (HL-60(TB) leukemia) of the same compound?
**A.** > 100 µM

**Q.** What about the TGI (UO-31 renal) of the same compound?
**A.** > 100 µM

**Q.** What about the TGI (EKVX NSCLC) of the same compound?
**A.** > 100 µM

**Q.** What about the TGI (SN12C renal) of the same compound?
**A.** > 100 µM

**Q.** And the TGI (DU-145 prostate)?
**A.** > 100 µM

**Q.** What about the TGI (RPMI-8226 leukemia) of the same compound?
**A.** > 100 µM

**Q.** What about the TGI (HCT-15 colon) of the same compound?
**A.** > 100 µM

**Q.** What about the TGI (TK-10 renal) of the same compound?
**A.** > 100 µM

**Q.** And the TGI (BT-549 breast)?
**A.** > 100 µM

**Q.** And the TGI (NCI-H522 lung)?
**A.** > 100 µM

**Q.** And the TGI (NCI/ADR-RES ovarian)?
**A.** > 100 µM

**Q.** And the TGI (786-0 renal)?
**A.** > 100 µM

**Q.** What about the TGI (CAKI-1 renal) of the same compound?
**A.** > 100 µM

**Q.** What about the TGI (UACC-257 melanoma) of the same compound?
**A.** > 100 µM

**Q.** And the TGI (MCF7 breast)?
**A.** > 100 µM

**Q.** And the TGI (SK-MEL-5 melanoma)?
**A.** > 100 µM

**Q.** And the TGI (HCT-116 colon)?
**A.** > 100 µM

**Q.** What about the TGI (OVCAR-8 ovarian) of the same compound?
**A.** > 100 µM

**Q.** And the TGI (NCI-H460 lung)?
**A.** > 100 µM

**Q.** What about the TGI (MOLT-4 leukemia) of the same compound?
**A.** > 100 µM

**Q.** And the TGI (PC-3 prostate)?
**A.** > 100 µM

**Q.** And the TGI (HT29 colon)?
**A.** > 100 µM

**Q.** What about the TGI (HOP-92 NSCLC) of the same compound?
**A.** > 100 µM

**Q.** What about the TGI (NCI-H226 lung) of the same compound?
**A.** > 100 µM

**Q.** What about the TGI (U251 CNS) of the same compound?
**A.** > 100 µM

**Q.** And the TGI (HOP-62 NSCLC)?
**A.** > 100 µM

**Q.** And the TGI (SW-620 colon)?
**A.** > 100 µM

**Q.** And the TGI (CCRF-CEM leukemia)?
**A.** > 100 µM

**Q.** And the TGI (SF-268 CNS)?
**A.** > 100 µM

**Q.** And the TGI (NCI-H23 lung)?
**A.** > 100 µM

**Q.** And the TGI (MALME-3M melanoma)?
**A.** > 100 µM

**Q.** What about the TGI (KM12 colon) of the same compound?
**A.** > 100 µM

**Q.** What about the TGI (MDA-MB-231 breast) of the same compound?
**A.** > 100 µM

**Q.** And the TGI (SR leukemia)?
**A.** > 100 µM

**Q.** What about the TGI (MDA-N) of the same compound?
**A.** > 100 µM

**Q.** And the TGI (A549 NSCLC)?
**A.** > 100 µM

**Q.** And the TGI (ACHN renal)?
**A.** > 100 µM

**Q.** What about the TGI (COLO 205 colon) of the same compound?
**A.** > 100 µM

**Q.** What about the TGI (LOX IMVI melanoma) of the same compound?
**A.** > 100 µM

**Q.** What about the TGI (HS 578T breast) of the same compound?
**A.** > 100 µM

**Q.** And the TGI (SNB-19 CNS)?
**A.** > 100 µM

**Q.** What about the TGI (OVCAR-3 ovarian) of the same compound?
**A.** > 100 µM

**Q.** And the TGI (SK-MEL-28 melanoma)?
**A.** > 100 µM

**Q.** And the TGI (HCC-2998 colon)?
**A.** > 100 µM

**Q.** What about the TGI (A498 renal) of the same compound?
**A.** > 100 µM

**Q.** What about the TGI (SF-539 CNS) of the same compound?
**A.** > 100 µM

**Q.** Which TGI (K-562 leukemia) does the source give for `CCCCCCCC/C=C\CCCCCCC(F)C(=O)O` (centres undefined) here?
**A.** > 12.5 µM

**Q.** And the TGI (IGROV1 ovarian)?
**A.** > 12.5 µM

**Q.** And the TGI (OVCAR-5 ovarian)?
**A.** > 12.5 µM

**Q.** What about the TGI (SF-295 CNS) of the same compound?
**A.** > 12.5 µM

**Q.** What about the TGI (SK-MEL-2 melanoma) of the same compound?
**A.** > 12.5 µM

**Q.** What about the TGI (OVCAR-4 ovarian) of the same compound?
**A.** > 12.5 µM

**Q.** What about the TGI (RXF 393 renal) of the same compound?
**A.** > 12.5 µM

**Q.** What about the TGI (MDA-MB-435) of the same compound?
**A.** > 12.5 µM

**Q.** What about the TGI (M14 melanoma) of the same compound?
**A.** > 12.5 µM

**Q.** What about the TGI (HL-60(TB) leukemia) of the same compound?
**A.** > 12.5 µM

**Q.** What about the TGI (UO-31 renal) of the same compound?
**A.** > 12.5 µM

**Q.** What about the TGI (EKVX NSCLC) of the same compound?
**A.** > 12.5 µM

**Q.** And the TGI (SN12C renal)?
**A.** > 12.5 µM

**Q.** What about the TGI (DU-145 prostate) of the same compound?
**A.** > 12.5 µM

**Q.** And the TGI (RPMI-8226 leukemia)?
**A.** > 12.5 µM

**Q.** What about the TGI (HCT-15 colon) of the same compound?
**A.** > 12.5 µM

**Q.** What about the TGI (TK-10 renal) of the same compound?
**A.** > 12.5 µM

**Q.** What about the TGI (SK-OV-3 ovarian) of the same compound?
**A.** > 12.5 µM

**Q.** And the TGI (NCI-H522 lung)?
**A.** > 12.5 µM

**Q.** And the TGI (NCI/ADR-RES ovarian)?
**A.** > 12.5 µM

**Q.** And the TGI (786-0 renal)?
**A.** > 12.5 µM

**Q.** And the TGI (CAKI-1 renal)?
**A.** > 12.5 µM

**Q.** What about the TGI (UACC-257 melanoma) of the same compound?
**A.** > 12.5 µM

**Q.** And the TGI (MCF7 breast)?
**A.** > 12.5 µM

**Q.** What about the TGI (SK-MEL-5 melanoma) of the same compound?
**A.** > 12.5 µM

**Q.** What about the TGI (HCT-116 colon) of the same compound?
**A.** > 12.5 µM

**Q.** What about the TGI (OVCAR-8 ovarian) of the same compound?
**A.** > 12.5 µM

**Q.** And the TGI (MOLT-4 leukemia)?
**A.** > 12.5 µM

**Q.** And the TGI (PC-3 prostate)?
**A.** > 12.5 µM

**Q.** And the TGI (HT29 colon)?
**A.** > 12.5 µM

**Q.** And the TGI (HOP-92 NSCLC)?
**A.** > 12.5 µM

**Q.** And the TGI (NCI-H226 lung)?
**A.** > 12.5 µM

**Q.** What about the TGI (U251 CNS) of the same compound?
**A.** > 12.5 µM

**Q.** What about the TGI (SNB-75 CNS) of the same compound?
**A.** > 12.5 µM

**Q.** What about the TGI (HOP-62 NSCLC) of the same compound?
**A.** > 12.5 µM

**Q.** And the TGI (SW-620 colon)?
**A.** > 12.5 µM

**Q.** What about the TGI (CCRF-CEM leukemia) of the same compound?
**A.** > 12.5 µM

**Q.** What about the TGI (SF-268 CNS) of the same compound?
**A.** > 12.5 µM

**Q.** What about the TGI (NCI-H23 lung) of the same compound?
**A.** > 12.5 µM

**Q.** What about the TGI (MALME-3M melanoma) of the same compound?
**A.** > 12.5 µM

**Q.** And the TGI (KM12 colon)?
**A.** > 12.5 µM

**Q.** And the TGI (MDA-MB-231 breast)?
**A.** > 12.5 µM

**Q.** What about the TGI (T-47D breast) of the same compound?
**A.** > 12.5 µM

**Q.** What about the TGI (SR leukemia) of the same compound?
**A.** > 12.5 µM

**Q.** What about the TGI (MDA-N) of the same compound?
**A.** > 12.5 µM

**Q.** What about the TGI (A549 NSCLC) of the same compound?
**A.** > 12.5 µM

**Q.** And the TGI (ACHN renal)?
**A.** > 12.5 µM

**Q.** What about the TGI (COLO 205 colon) of the same compound?
**A.** > 12.5 µM

**Q.** And the TGI (LOX IMVI melanoma)?
**A.** > 12.5 µM

**Q.** What about the TGI (HS 578T breast) of the same compound?
**A.** > 12.5 µM

**Q.** And the TGI (SNB-19 CNS)?
**A.** > 12.5 µM

**Q.** What about the TGI (OVCAR-3 ovarian) of the same compound?
**A.** > 12.5 µM

**Q.** What about the TGI (SK-MEL-28 melanoma) of the same compound?
**A.** > 12.5 µM

**Q.** What about the TGI (HCC-2998 colon) of the same compound?
**A.** > 12.5 µM

**Q.** And the TGI (A498 renal)?
**A.** > 12.5 µM

**Q.** And the TGI (SF-539 CNS)?
**A.** > 12.5 µM
